In ChEMBL document CHEMBL1139672, “1,2,3,4-Tetrahydroisoquinolinyl sulfamic acids as phosphatase PTP1B inhibitors” (Bioorg Med Chem Lett, 2006):

Each compound was assayed against T1, Tyrosine-protein phosphatase non-receptor type 1 (Homo sapiens, UniProt P18031) (assay: Inhibition of PTP1B).
T1 sequence (P18031 whole entry): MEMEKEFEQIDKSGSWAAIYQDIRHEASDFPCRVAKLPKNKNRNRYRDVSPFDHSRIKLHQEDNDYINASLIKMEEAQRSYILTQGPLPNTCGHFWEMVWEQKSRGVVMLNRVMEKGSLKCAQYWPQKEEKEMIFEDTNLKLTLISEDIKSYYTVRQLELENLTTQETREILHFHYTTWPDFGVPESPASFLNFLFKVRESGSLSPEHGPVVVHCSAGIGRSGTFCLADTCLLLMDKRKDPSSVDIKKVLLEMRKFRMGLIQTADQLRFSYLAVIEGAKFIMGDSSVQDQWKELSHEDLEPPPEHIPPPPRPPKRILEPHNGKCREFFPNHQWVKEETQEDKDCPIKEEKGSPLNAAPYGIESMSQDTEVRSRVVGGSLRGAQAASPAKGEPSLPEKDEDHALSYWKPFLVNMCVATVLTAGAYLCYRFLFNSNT
An IC50 of 154 µM was found for `CNC(=O)[C@@H]1Cc2ccc(NS(=O)(=O)O)cc2CN1C(=O)CCC(=O)O` in this work.
An IC50 of 51.4 µM was found for `CC(C)(C)OC(=O)N1Cc2cc(NS(=O)(=O)O)ccc2C[C@H]1C(=O)NCCc1ccccc1` in this work.
An IC50 of over 500 µM was found for `CC(C)(C)OC(=O)N1Cc2cc(NS(=O)(=O)O)ccc2C[C@H]1CO` in this work.
An IC50 of 42.5 µM was found for `CNC(=O)[C@@H]1Cc2ccc(NS(=O)(=O)O)cc2CN1C(=O)OC(C)(C)C` in this work.
An IC50 of 271 µM was found for `CNC(=O)[C@@H]1Cc2ccc(NS(=O)(=O)O)cc2CN1C(=O)CCCc1ccccc1` in this work.
An IC50 of 82.1 µM was found for `CNC(=O)[C@@H]1Cc2ccc(NS(=O)(=O)O)cc2CN1C(=O)CCc1cccc(O)c1` in this work.
An IC50 of 39.6 µM was found for `CNC(=O)[C@H](Cc1ccc(NS(=O)(=O)O)cc1)NC(=O)OC(C)(C)C` in this work.
An IC50 of 198 µM was found for `CNC(=O)[C@@H]1Cc2ccc(NS(=O)(=O)O)cc2CN1C(=O)CCc1ccc(C)cc1` in this work.
An IC50 of 164 µM was found for `CNC(=O)[C@@H]1Cc2ccc(NS(=O)(=O)O)cc2CN1C(=O)NCc1ccccc1` in this work.
An IC50 of 120 µM was found for `CC(C)(C)OC(=O)N1Cc2cc(NS(=O)(=O)O)ccc2C[C@H]1C(=O)NCc1ccccc1` in this work.
An IC50 of 101 µM was found for `CNC(=O)[C@@H]1Cc2ccc(NS(=O)(=O)O)cc2CN1C(=O)CCc1cccc(Cl)c1` in this work.
An IC50 of 16.7 µM was found for `CC(C)COC(=O)[C@@H]1Cc2ccc(NS(=O)(=O)O)cc2CN1C(=O)OC(C)(C)C` in this work.
An IC50 of 148 µM was found for `CNC(=O)[C@@H]1Cc2ccc(NS(=O)(=O)O)cc2CN1C(=O)CCCCc1ccccc1` in this work.
An IC50 of 146 µM was found for `CNC(=O)[C@@H]1Cc2ccc(NS(=O)(=O)O)cc2CN1C(=O)CCc1cccc(C(F)(F)F)c1` in this work.
An IC50 of 8.23 µM was found for `Cc1noc([C@@H]2Cc3ccc(NS(=O)(=O)O)cc3CN2C(=O)OC(C)(C)C)n1` in this work.
An IC50 of 225 µM was found for `CNC(=O)[C@@H]1Cc2ccc(NS(=O)(=O)O)cc2CN1C(=O)CCc1ccc(C(F)(F)F)cc1` in this work.
An IC50 of 26 µM was found for `O=C(CCc1cccc(NS(=O)(=O)O)c1)N1CCc2ccc(NS(=O)(=O)O)cc2C1` in this work.
An IC50 of over 500 µM was found for `CNC(=O)[C@@H]1Cc2ccc(NS(=O)(=O)O)cc2CN1C(=O)[C@H](Cc1ccccc1)NC(=O)OC(C)(C)C` in this work.
An IC50 of 83.6 µM was found for `CNC(=O)[C@@H]1Cc2ccc(NS(=O)(=O)O)cc2CN1C(=O)CCOc1ccccc1` in this work.
An IC50 of 36.7 µM was found for `CNC(=O)[C@@H]1Cc2ccc(NS(=O)(=O)O)cc2CN1C(=O)CCc1coc2ccccc12` in this work.
An IC50 of 184 µM was found for `CNC(=O)[C@@H]1Cc2ccc(NS(=O)(=O)O)cc2CN1C(=O)CCc1cc(NS(C)(=O)=O)cc(C(F)(F)F)c1` in this work.
An IC50 of 95.3 µM was found for `CNC(=O)[C@@H]1Cc2ccc(NS(=O)(=O)O)cc2CN1C(=O)COc1ccccc1` in this work.
An IC50 of 64.4 µM was found for `CNC(=O)[C@@H]1Cc2ccc(NS(=O)(=O)O)cc2CN1C(=O)CCc1ccccc1` in this work.
An IC50 of 93.4 µM was found for `CNC(=O)[C@@H]1Cc2ccc(NS(=O)(=O)O)cc2CN1C(=O)COc1cccc(O)c1C(=O)OC` in this work.
An IC50 of 24.9 µM was found for `CNC(=O)[C@@H]1Cc2ccc(NS(=O)(=O)O)cc2CN1C(=O)/C=C/c1coc2ccccc12` in this work.
An IC50 of 19 µM was found for `COC(=O)[C@@H]1Cc2ccc(NS(=O)(=O)O)cc2CN1C(=O)OC(C)(C)C` in this work.
An IC50 of 286 µM was found for `CNC(=O)[C@@H]1Cc2ccc(NS(=O)(=O)O)cc2CN1C(=O)c1ccccc1` in this work.
An IC50 of 242 µM was found for `CNC(=O)[C@@H]1Cc2ccc(NS(=O)(=O)O)cc2CN1C(=O)CCc1ccc(OC)cc1` in this work.

The compounds below were run against T2, Tyrosine-protein phosphatase non-receptor type 2 (Homo sapiens, UniProt P17706) (assay: Inhibition of TCPTP).
T2 sequence (P17706 whole entry): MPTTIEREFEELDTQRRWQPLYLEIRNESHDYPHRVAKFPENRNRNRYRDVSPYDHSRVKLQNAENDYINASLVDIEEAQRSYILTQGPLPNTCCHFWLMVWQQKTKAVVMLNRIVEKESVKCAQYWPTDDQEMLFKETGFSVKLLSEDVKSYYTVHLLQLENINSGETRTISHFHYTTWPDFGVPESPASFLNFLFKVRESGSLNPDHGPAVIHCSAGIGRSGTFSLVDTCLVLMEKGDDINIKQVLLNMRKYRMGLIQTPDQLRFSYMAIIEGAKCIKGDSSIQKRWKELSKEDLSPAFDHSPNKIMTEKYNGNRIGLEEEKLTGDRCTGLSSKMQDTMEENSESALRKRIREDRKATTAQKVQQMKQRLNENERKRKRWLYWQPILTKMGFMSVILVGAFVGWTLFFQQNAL
An IC50 of 169 µM was found for `CNC(=O)[C@@H]1Cc2ccc(NS(=O)(=O)O)cc2CN1C(=O)OC(C)(C)C` in this work.
An IC50 of 80.1 µM was found for `CNC(=O)[C@H](Cc1ccc(NS(=O)(=O)O)cc1)NC(=O)OC(C)(C)C` in this work.
An IC50 of 204 µM was found for `O=C(CCc1cccc(NS(=O)(=O)O)c1)NCc1cccc(NS(=O)(=O)O)c1` in this work.
An IC50 of 68.6 µM was found for `O=C(CCc1cccc(NS(=O)(=O)O)c1)N1CCc2ccc(NS(=O)(=O)O)cc2C1` in this work.
